Consider 13 compounds from patent publication US9359358B2, “Cyclohexyl azetidine derivatives as JAK inhibitors” (Incyte Holdings Corporation, priority 2011, dated 2016).

Structures can show the parent of a compound that is named as a salt.

One assay addresses T1, human JAK1 (Homo sapiens, UniProt P23458).
T1 construct: human JAK1 (a.a. 837-1142); His tag (N); made in house; host or cells: insect cells (baculovirus)
As to the kind of experiment: In Vitro JAK Kinase Assay (HTRF, phosphorylation of a biotinylated peptide), JAK1. To be noted: catalytic domain a.a. 837-1142, assay of Example A. It counts as biochemical. Here is the method:
(§1) The catalytic activity of JAK1, JAK2 or JAK3 was assayed by measuring the phosphorylation of a biotinylated peptide. The phosphorylated peptide was detected by homogenous time resolved fluorescence (HTRF). […] Reactions were carried out at room temperature for 1 hour and then stopped with 20 μL 45 mM EDTA, 300 nM SA-APC, 6 nM Eu-Py20 in assay buffer (Perkin Elmer, Boston, Mass.). Binding to the Europium labeled antibody took place for 40 minutes and HTRF signal was measured on a Fusion plate reader (Perkin Elmer, Boston, Mass.).
For orientation: TR-FRET usually uses a lanthanide donor and a delayed reading to cut background.

For another assay, the target named is T2, human JAK2 (Homo sapiens, UniProt O60674).
T2 construct: JAK2 (a.a. 828-1132); His tag (N); made in house; host or cells: insect cells (baculovirus)
As to the kind of experiment: In Vitro JAK Kinase Assay (HTRF, phosphorylation of a biotinylated peptide), JAK2. It counts as biochemical. Conditions: assay of Example A. Here is the method: as §1

T2 sequence (O60674 828-1132): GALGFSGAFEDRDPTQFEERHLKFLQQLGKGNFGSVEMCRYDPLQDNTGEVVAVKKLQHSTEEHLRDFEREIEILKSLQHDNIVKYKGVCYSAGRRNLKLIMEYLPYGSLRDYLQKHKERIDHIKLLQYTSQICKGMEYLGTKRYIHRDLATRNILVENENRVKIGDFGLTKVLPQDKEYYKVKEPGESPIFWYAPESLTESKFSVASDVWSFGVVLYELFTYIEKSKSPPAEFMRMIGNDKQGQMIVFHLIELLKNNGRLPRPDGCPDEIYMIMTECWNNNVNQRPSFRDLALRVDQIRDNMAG
T1 sequence (P23458 849-1154): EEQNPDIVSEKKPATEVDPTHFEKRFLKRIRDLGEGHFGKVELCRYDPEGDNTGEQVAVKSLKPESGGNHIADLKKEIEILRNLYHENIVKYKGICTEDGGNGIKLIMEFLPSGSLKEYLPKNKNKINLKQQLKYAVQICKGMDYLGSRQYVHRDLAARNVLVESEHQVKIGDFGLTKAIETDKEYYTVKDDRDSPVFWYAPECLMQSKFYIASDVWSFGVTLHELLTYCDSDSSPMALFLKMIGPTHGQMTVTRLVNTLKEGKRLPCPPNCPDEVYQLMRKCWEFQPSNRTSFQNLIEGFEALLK

Broadly, the IC50 is the concentration at which inhibition is half-maximal. A high value points to weaker potency. The compound “2-(1-(cis-4-((6-(((2-(1H-imidazol-4- yl)ethyl)amino)methyl)-2- (trifluoromethyl)pyrimidin-4- yl)oxy)cyclohexyl)-3-(4-(7H-pyrrolo[2,3- d]pyrimidin-4-yl)-1H-pyrazol-1- yl)azetidin-3-yl)acetonitrile tris(trifluoroacetate) (salt) [Example 39]” registered an IC50 on human JAK1 (Table 4) of under 10 nM. Also, the “JAK2/JAK1 IC50 ratio” value on human JAK2 (Table 4) is “≧10”.
At human JAK1 (Table 5), `CCC(C)NC(=O)c1cc(O[C@H]2CC[C@@H](N3CC(CC#N)(n4cc(-c5ncnc6[nH]ccc56)cn4)C3)CC2)nc(C(F)(F)F)c1.O=C(O)C(F)(F)F.O=C(O)C(F)(F)F` (relative stereo) [Example 88, N-(sec-butyl)-2-[(cis-4-{3-(cyanomethyl)-3-[4-(7H-pyrrolo[2,3-d]pyrimidin-4-yl)-1H-pyrazol-1-yl]azetidin-1-yl}cyclohexyl)oxy]-6-(trifluoromethyl)isonicotinamide bis(trifluoroacetate)] came in with an IC50 of under 10 nM. Moreover, at human JAK2 (Table 5), the “JAK2/JAK1 IC50 ratio” value is “≧10”.
`CC(O)(CO)c1cc(OC2CCC(N3CC(CC#N)(n4cc(-c5ncnc6[nH]ccc56)cn4)C3)CC2)nc(C(F)(F)F)n1` (single isomer, unassigned) [Example 57, {1-(cis-4-{[6-(1,2-dihydroxy-1-methylethyl)-2-(trifluoromethyl)pyrimidin-4-yl]oxy}cyclohexyl)-3-[4-(7H-pyrrolo[2,3-d]pyrimidin-4-yl)-1H-pyrazol-1-yl]azetidin-3-yl}acetonitrile tris(trifluoroacetate) (salt)] came in with an IC50 against human JAK1 (Table 4) of under 10 nM. The “JAK2/JAK1 IC50 ratio” value on human JAK2 (Table 4) was “≧10”.
On the same counts, the results for `CC(O)(CO)c1cc(OC2CCC(N3CC(CC#N)(n4cc(-c5ncnc6[nH]ccc56)cn4)C3)CC2)nc(C(F)(F)F)n1` (single isomer, unassigned) [Example 57a, {1-(cis-4-{[6-(1,2-dihydroxy-1-methylethyl)-2-(trifluoromethyl)pyrimidin-4-yl]oxy}cyclohexyl)-3-[4-(7H-pyrrolo[2,3-d]pyrimidin-4-yl)-1H-pyrazol-1-yl]azetidin-3-yl}acetonitrile tris(trifluoroacetate) (salt)] are under 10 nM and “≧10”.
At human JAK1 (Table 4), `CC(O)c1cc(OC2CCC(N3CC(CC#N)(n4cc(-c5ncnc6[nH]ccc56)cn4)C3)CC2)nc(C(F)(F)F)n1` (single isomer, unassigned) [Example 58, {1-(cis-4-{[6-(1-hydroxyethyl)-2-(trifluoromethyl)pyrimidin-4-yl]oxy}cyclohexyl)-3-[4-(7H-pyrrolo[2,3-d]pyrimidin-4-yl)-1H-pyrazol-1-yl]azetidin-3-yl}acetonitrile tris(trifluoroacetate) (salt)] had an IC50 of under 10 nM. Further, the “JAK2/JAK1 IC50 ratio” value at human JAK2 (Table 4) was “≧10”.
Regarding `CC(O)c1cc(OC2CCC(N3CC(CC#N)(n4cc(-c5ncnc6[nH]ccc56)cn4)C3)CC2)nc(C(F)(F)F)n1` (single isomer, unassigned) [Example 58a, {1-(cis-4-{[6-(1-hydroxyethyl)-2-(trifluoromethyl)pyrimidin-4-yl]oxy}cyclohexyl)-3-[4-(7H-pyrrolo[2,3-d]pyrimidin-4-yl)-1H-pyrazol-1-yl]azetidin-3-yl}acetonitrile tris(trifluoroacetate) (salt)], the IC50 against human JAK1 (Table 4) was under 10 nM. On human JAK2 (Table 4), the “JAK2/JAK1 IC50 ratio” value is given as “≧10”.
Regarding `CC(CO)c1cc(OC2CCC(N3CC(CC#N)(n4cc(-c5ncnc6[nH]ccc56)cn4)C3)CC2)nc(C(F)(F)F)n1` (single isomer, unassigned) [Example 59, {1-(cis-4-{[6-(2-hydroxy-1-methylethyl)-2-(trifluoromethyl)pyrimidin-4-yl]oxy}cyclohexyl)-3-[4-(7H-pyrrolo[2,3-d]pyrimidin-4-yl)-1H-pyrazol-1-yl]azetidin-3-yl}acetonitrile bis(trifluoroacetate) (salt)], the IC50 against human JAK1 (Table 4) is under 10 nM. Further, at human JAK2 (Table 4), the “JAK2/JAK1 IC50 ratio” value is “≧10”.
On the same counts, the results for `CC(CO)c1cc(OC2CCC(N3CC(CC#N)(n4cc(-c5ncnc6[nH]ccc56)cn4)C3)CC2)nc(C(F)(F)F)n1` (single isomer, unassigned) [Example 59a, {1-(cis-4-{[6-(2-hydroxy-1-methylethyl)-2-(trifluoromethyl)pyrimidin-4-yl]oxy}cyclohexyl)-3-[4-(7H-pyrrolo[2,3-d]pyrimidin-4-yl)-1H-pyrazol-1-yl]azetidin-3-yl}acetonitrile bis(trifluoroacetate) (salt)] are under 10 nM and “≧10”.
`N#CCC1(n2cc(-c3ncnc4[nH]ccc34)cn2)CN([C@H]2CC[C@@H](Oc3cc(CN4CCC[C@@H]4CO)cc(C(F)(F)F)n3)CC2)C1.O=C(O)C(F)(F)F.O=C(O)C(F)(F)F.O=C(O)C(F)(F)F` (stereo in doubt) [Example 93, {1-(cis-4-{[4-{[(2R)-2-(hydroxymethyl)pyrrolidin-1-yl]methyl}-6-(trifluoromethyl)pyridin-2-yl]oxy}cyclohexyl)-3-[4-(7H-pyrrolo[2,3-d]pyrimidin-4-yl)-1H-pyrazol-1-yl]azetidin-3-yl}acetonitrile tris(trifluoroacetate)] showed an IC50 against human JAK1 (Table 5) of under 10 nM. At human JAK2 (Table 5), the “JAK2/JAK1 IC50 ratio” value is reported as “≧10”.
As for `N#CCC1(n2cc(-c3ncnc4[nH]ccc34)cn2)CN([C@H]2CC[C@@H](Oc3cc(CN4CCCCC4)nc(C(F)(F)F)n3)CC2)C1` [Example 30, {1-(cis-4-{[6-(piperidin-1-ylmethyl)-2-(trifluoromethyl)pyrimidin-4-yl]oxy}cyclohexyl)-3-[4-(7H-pyrrolo[2,3-d]pyrimidin-4-yl)-1H-pyrazol-1-yl]azetidin-3-yl}acetonitrile tris(trifluoroacetate)], the IC50 at human JAK1 (Table 4) is under 10 nM.
At human JAK1 (Table 4), `CC(C)CNCc1cc(O[C@H]2CC[C@@H](N3CC(CC#N)(n4cc(-c5ncnc6[nH]ccc56)cn4)C3)CC2)nc(C(F)(F)F)n1` [Example 35, {1-(cis-4-{[6-[(isobutylamino)methyl]-2-(trifluoromethyl)pyrimidin-4-yl]oxy}cyclohexyl)-3-[4-(7H-pyrrolo[2,3-d]pyrimidin-4-yl)-1H-pyrazol-1-yl]azetidin-3-yl}acetonitrile tris(trifluoroacetate)] registered an IC50 of under 10 nM.
Regarding `CC(C)(CO)NCc1cc(O[C@H]2CC[C@@H](N3CC(CC#N)(n4cc(-c5ncnc6[nH]ccc56)cn4)C3)CC2)nc(C(F)(F)F)c1` [Example 71, {1-(cis-4-{[4-{[(2-hydroxy-1,1-dimethylethyl)amino]methyl}-6-(trifluoromethyl)pyridin-2-yl]oxy}cyclohexyl)-3-[4-(7H-pyrrolo[2,3-d]pyrimidin-4-yl)-1H-pyrazol-1-yl]azetidin-3-yl}acetonitrile tris(trifluoroacetate) (salt)], the half-inhibitory concentration (IC50) against human JAK1 (Table 5) was under 10 nM.
On to `N#CCC1(n2cc(-c3ncnc4[nH]ccc34)cn2)CN([C@H]2CC[C@@H](Oc3cc(CN4CCC(O)CC4)cc(C(F)(F)F)n3)CC2)C1` [Example 97, {1-(cis-4-{[4-[(4-hydroxypiperidin-1-yl)methyl]-6-(trifluoromethyl)pyridin-2-yl]oxy}cyclohexyl)-3-[4-(7H-pyrrolo[2,3-d]pyrimidin-4-yl)-1H-pyrazol-1-yl]azetidin-3-yl}acetonitrile tris(trifluoroacetate)], for which the IC50 against human JAK1 (Table 5) was under 10 nM.
